Changes are numbered by the printed parent chain. Names may count otherwise.
What was measured:
CAD cells [1] = experiment: Screen of J proteins for EV-mediated export of misfolded huntingtin (western blot and nanoscale flow cytometry); format: cell-based; conditions: cells expressing GFP-tagged 72Q huntingtin^exon1 and the J protein
Procedure: (§1) Cell lines were transfected with the molecular chaperone CSPα and a GFP-tagged protein. CAD cells (catecholaminergic derived CNS cells) were the cell line utilized. Other cell lines, including patient-derived cell lines, may also be utilized. cDNAs encoding for myc-tagged CSPα or vector alone and GFP-72Q huntingtin^exon1 were transiently transfected with Lipofectamine™ 3000 (Invitrogen) in Opti-MEM™ medium. Media was changed to serum-free media 6 hours post-transfection. Media was collected 48 hours after transfection, spun at 300×g for 5 min to remove cell debris and evaluated without further processing by nanocyte tracking analysis, nanoscale flow cytometry analysis and dot blot analysis. For western blot analysis, EVs were isolated from the unfractionated media by exoquick precipitation solution (SBI) and solubilized in sample buffer. Following media collection, cell viability was determined using an XTT assay (New England Biolabs). When resveratrol was used, it was added to the serum-free media 6 hours post-transfection at the time of the media change.
(§2) Proteins were separated by SDS-PAGE and electrotransferred from polyacrylamide gels to nitrocellulose membrane (0.2 μm pore size). Membranes were blocked in tris-buffered saline (TBS) containing 0.1% Tween 20, 1% BSA and then incubated with primary antibody overnight at 4° C. The membranes were washed and incubated with horseradish peroxidase-coupled secondary antibody for about 2 hours at room temperature. Bound antibodies on the membranes were detected by incubation with Pierce chemiluminescent reagent and exposure to Cdigit, LiCor (Mandel). The chemiluminescent signals were quantified using image studio digits software (Mandel). For dot blots, 10 μl of unfractionated media was spotted on a nitrocellulose membrane, dried and the membrane was processed as described above.
(§3) Samples were similarly prepared for nanoscale flow cytometry as for NTA. All samples were analyzed using the Apogee A50 flow cytometry platform. Light scatter was provided using the 405 nm laser (75 mW); GFP signal was generated using the 488 nm laser (50 mW, 535/35) and far red signal was generated using the 630 nm laser (75 mW, 680/35). All samples were analyzed for 60 seconds. Optimization was performed to insure single EVs were being analyzed and single events were triggered by light scatter only. The system was cleaned each day prior to sample analysis and a variety of silica and polystyrene standards (Apogee 1493 standards) processed for instrument set up and QC. The silica standards were used to assess the relative size range of EVs. Nanoscale flow cytometry measures EVs within a size range from about 100 nm to about 1,300 nm.
To test whether other J proteins may also export misfolded proteins, several J proteins with reported links to neurodegeneration were screened for EV-mediated export activity. […] Alternative splicing of the DnaJB2 gene produces two isoforms, a DnaJB2short and a 42 kDa DnaJB2long isoform that undergoes C terminal geranylgeranylation. DnaJB2long was studied further. […] Extracellular milieu includes free floating co-chaperones in addition to EVs, and chaperones that adhere to EVs were expected to co-isolate with EVs. […] In fact, DnaJB11 as well as DnaJA1 were robustly secreted by CAD neurons under all conditions evaluated (FIG. 5C).

CAD cells [2] = experiment: Western blot / dot blot analysis of GFP-72Q huntingtin^exon1 in EVs collected from CAD cells; format: cell-based
Procedure: as §1, §2

naive CAD cells = experiment: EV delivery of GFP-72Q huntingtin^exon1 cargo to naive recipient CAD cells (live cell fluorescence imaging); format: cell-based; conditions: for GFP-72Q huntingtin^exon1 cargo / aggregates in recipient CAD cells after media application: conditioned media applied to naive cells, imaged 1-48 hours
Procedure: Images of live cells were taken with the EVOS FL Auto Imaging System. Images of donor cells were taken at the time of media collection. Images of recipient cells were taken between 1-48 hours. The intensity of the GFP-72Q huntingtin^exon1 varied among cells and a single slider was used until the on-screen brightness of the lowest intensity aggregate was satisfactory and used this setting to capture images in high-quality mode. Where indicated, after the 300×g for 5 minutes conditioned media spin to remove cell debris, 60 μl of Exo-Red (SBI) was incubated with 1 ml media containing EVs for 10 minutes at 37° C. to label the RNA EV cargo. 150 μl of exo-quick was added, the labelled EVs were placed on ice for 30 min and then centrifuged for 3 minutes at 20,000×g. The labelled EV pellet was resuspended in 1 ml of DMEM-F12 media and applied to target cells.

CAD cells [3] = experiment: Nanoscale flow cytometry of EVs secreted from CAD cells expressing GFP-72Q huntingtin^exon1; format: cell-based
Procedure: as §1
For NTA and nanoscale flow cytometry analysis, all samples were diluted 25 fold using 0.2× phosphate buffered saline that had been filtered twice through 0.2 μm filter. For NTA analysis, all samples were analyzed using the Nanosight LM10 (405 nm laser, 60 mW, software version 3.00064). Samples were analyzed in triplicate for 60 seconds per replicate with a count range of 20-100 particles per frame. A variety of NIST (Thermo Scientific 3000 Series) standards were analyzed, each the day prior to sample analysis. The system was cleaned between each sample and checked for any sample carryover using the PBS diluent. NTA measures EVs within a size range from about 30 nm to about 1,000 nm.
as §3, with “nm. […]” for “nm.”

[4] = previously shown; cited from earlier work
[5] = presence of CSPα and 50 μM resveratrol

DnaJC19: related J protein
EV-mediated export of misfolded huntingtin (CAD cells [1]): did not export misfolded huntingtin

DnaJB1: related J protein
EV-mediated export of misfolded huntingtin (CAD cells [1]): did not export misfolded huntingtin

DnaJA1: related J protein
EV-mediated export of misfolded huntingtin (CAD cells [1]): did not export misfolded huntingtin

α-synuclein
mutant huntingtin export with increasing protein expression (CAD cells [2]; western blot of EVs): did not result in mutant huntingtin export | GFP-72Q huntingtin^exon1 cargo / aggregates in recipient CAD cells after media application (naive CAD cells): low levels of GFP signal at 24 hours

DnaJC13: related J protein
EV-mediated export of misfolded huntingtin (CAD cells [1]): did not export misfolded huntingtin

Oc1ccc(C=Cc2cc(O)cc(O)c2)cc1 [resveratrol, Resveratrol]
GFP-72Q huntingtin^exon1-containing EVs (CAD cells [3]; 50 μM resveratrol 6 hours following transfection): decreasing | total EVs exported by CAD cells (CAD cells [3]; 50 μM resveratrol 6 hours following transfection, all conditions (vector, CSPα, CSPαL115R, CSPαΔ116)): increased total EVs exported by CAD cells in all conditions | mean size of vesicles (CAD cells [3]; 50 μM resveratrol, all conditions): increased the mean size of vesicles | total EV secretion (CAD cells [3]; 50 μM resveratrol, control, vector and CSPα-expressing cells): increases total EV secretion | CSPα-EV export of EVs containing GFP-72Q huntingtin^exon1 (CAD cells [3]; 50 μM resveratrol, p<0.0001): significantly reduced | EVs containing GFP cargo within the 180-240 nm subpopulation (CAD cells [3]; [5]): 0.53% | EVs containing GFP cargo within the <180 nm subpopulation (CAD cells [3]; [5]): 0.03% | EVs containing GFP cargo within the >240 nm subpopulation (CAD cells [3]; [5]): 0.78% | secretion of the 180-240 nm GFP-labelled EV pool (CAD cells [3]; resveratrol concentration response): significantly reduced secretion of the 180-240 nm GFP-labelled EV pool in a concentration-dependent manner | secretion of GFP-72Q huntingtin^exon1 and CSPα (western blot of EVs) (CAD cells [2]; 50 μM resveratrol): reduced secretion of GFP-72Q huntingtin^exon1 but not CSPα | secretion of GFP-72Q huntingtin^exon1 mediated by CSPα and ANCL mutants (CAD cells [2]; 50 μM resveratrol): reduced secretion of GFP-72Q huntingtin^exon1 mediated by CSPα, CSPαL115R and CSPαΔ116 | GFP cargo in recipient cells (naive CAD cells; media produced from neurons treated with 50 μM resveratrol): GFP cargo was still detected in recipient cells

B1: CSPαL115R: CSPα with the human L115R mutation that causes ANCL (protein, UniProt Q9H3Z4 1-198, looked up, variant L115R)
DnaJ homolog subfamily C …: MADQRQRSLSTSGESLYHVLGLDKNATSDDIKKSYRKLALKYHPDKNPDNPEAADKFKEINNAHAILTDATKRNIYDKYGSLGLYVAEQFGEENVNTYFVLSSWWAKALFVFCGRLTCCYCCCCLCCCFNCCCGKCKPKAPEGEETEFYVSPEDLEAQLQSDEREATDTPIVIQPASATETTQLTADSHPSYHTDGFN
export of GFP-72Q huntingtin^exon1 [4]: promote export

B2: CSPαΔ116: CSPα with the human L116Δ mutation that causes ANCL (protein, UniProt Q9H3Z4 1-198, looked up, variant L116*)
DnaJ homolog subfamily C …: MADQRQRSLSTSGESLYHVLGLDKNATSDDIKKSYRKLALKYHPDKNPDNPEAADKFKEINNAHAILTDATKRNIYDKYGSLGLYVAEQFGEENVNTYFVLSSWWAKALFVFCGLTCCYCCCCLCCCFNCCCGKCKPKAPEGEETEFYVSPEDLEAQLQSDEREATDTPIVIQPASATETTQLTADSHPSYHTDGFN
export of GFP-72Q huntingtin^exon1 [4]: promote export

B3: CSPαHPD-AAA: loss-of-function CSPα mutant that does not interact with Hsp70 ATPases (protein, UniProt Q9H3Z4 1-198, looked up, variant H43A P44A D45A)
DnaJ homolog subfamily C …: B1 DnaJ homolog subfamily C … with H43A, P44A, D45A, R115L
GFP-72Q huntingtin^exon1 cargo / aggregates in recipient CAD cells after media application (naive CAD cells): low levels of GFP signal at 24 hours | export of GFP-72Q huntingtin^exon1 [4]: does not

B4: DnaJB2: DnaJ Heat Shock Protein Family (Hsp40) Member B2 (protein, UniProt P25686 2-321, looked up)
DnaJ homolog subfamily B …: ASYYEILDVPRSASADDIKKAYRRKALQWHPDKNPDNKEFAEKKFKEVAEAYEVLSDKHKREIYDRYGREGLTGTGTGPSRAEAGSGGPGFTFTFRSPEEVFREFFGSGDPFAELFDDLGPFSELQNRGSRHSGPFFTFSSSFPGHSDFSSSSFSFSPGAGAFRSVSTSTTFVQGRRITTRRIMENGQERVEVEEDGQLKSVTINGVPDDLALGLELSRREQQPSVTSRSGGTQVQQTPASCPLDSDLSEDEDLQLAMAYSLSEMEAAGKKPAGGREAQHRRQGRPKAQHQDPGLGGTQEGARGEATKRSPSPEEKASRC
EV-mediated export of misfolded huntingtin (CAD cells [1]): exports misfolded huntingtin in EVs

B5: DnaJB11: related J protein (protein, UniProt Q9UBS4 23-358, looked up)
DnaJ homolog subfamily B …: GRDFYKILGVPRSASIKDIKKAYRKLALQLHPDRNPDDPQAQEKFQDLGAAYEVLSDSEKRKQYDTYGEEGLKDGHQSSHGDIFSHFFGDFGFMFGGTPRQQDRNIPRGSDIIVDLEVTLEEVYAGNFVEVVRNKPVARQAPGKRKCNCRQEMRTTQLGPGRFQMTQEVVCDECPNVKLVNEERTLEVEIEPGVRDGMEYPFIGEGEPHVDGEPGDLRFRIKVVKHPIFERRGDDLYTNVTISLVESLVGFEMDITHLDGHKVHISRDKITRPGAKLWKKGEGLPNFDNNNIKGSLIITFDVDFPKEQLTEEAREGIKQLLKQGSVQKVYNGLQGY
EV-mediated export of misfolded huntingtin (CAD cells [1]): did not export misfolded huntingtin

B6: DnaJC14: related J protein (protein, UniProt Q6Y2X3 1-702, looked up)
DnaJ homolog subfamily C …: MAQKHPGERGLYGAHHSGGASLRTLGPSVDPEIPSFSGLRDSAGTAPNGTRCLTEHSGPKHTQHPNPAHWLDPSHGPPGGPGPPRDAEDPDQSETSSEEESGVDQELSKENETGNQKDGNSFLSIPSACNCQGTPGIPEGPYSEGGNGSSSNFCHHCTSPALGEDELEEEYDDEESLKFPSDFSRVSSGKKPPSRRQRHRFPTKEDTREGGRRDPRSPGRHRLGRKRSQADKRKGLGLWGAEELCQLGQAGFWWLIELLVLVGEYVETCGHLIYACRQLKSSDLDLFRVWMGVWTGRLGGWAQVMFQFLSQGFYCGVGLFTRFLKLLGALLLLALALFLGFLQLGWRFLVGLGDRLGWRDKATWLFSWLDSPALQRCLTLLRDSRPWQRLVRIVQWGWLELPWVKQNINRQGNAPVASGRYCQPEEEVARLLTMAGVPEDELNPFHVLGVEATASDVELKKAYRQLAVMVHPDKNHHPRAEEAFKVLRAAWDIVSNAEKRKEYEMKRMAENELSRSVNEFLSKLQDDLKEAMNTMMCSRCQGKHRRFEMDREPKSARYCAECNRLHPAEEGDFWAESSMLGLKITYFALMDGKVYDITEWAGCQRVGISPDTHRVPYHISFGSRIPGTRGRQRATPDAPPADLQDFLSRIFQVPPGQMPNGNFFAAPQPAPGAAAASKPNSTVPKGEAKPKRRKKVRRPFQR
EV-mediated export of misfolded huntingtin (CAD cells [1]): did not export misfolded huntingtin

From US20220241202A1, “METHOD AND VEHICLE FOR DELIVERING AGENTS ACROSS THE BLOOD-BRAIN BARRIER” (priority 2019, published 2022)
